Laboratory results taken from PubChem BioAssay (NCI).
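The concentration for 50% growth inhibition is given as GI50. At the TGI there is no net growth.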

How the values were obtained:
Test in all cases: growth of human tumour cells (NCI), 384-well format
SNB-75 CNS = system: SNB-75 CNS
SF-295 CNS = system: SF-295 CNS
786-0 renal = system: 786-0 renal
RPMI-8226 leukemia = system: RPMI-8226 leukemia
NCI-H460 NSCLC = system: NCI-H460 NSCLC
HOP-92 NSCLC = system: HOP-92 NSCLC
T-47D breast = system: T-47D breast
KM12 colon = system: KM12 colon
A549 NSCLC = system: A549 NSCLC
HCT-15 colon = system: HCT-15 colon
NCI-H322M lung = system: NCI-H322M lung
LOX IMVI melanoma = system: LOX IMVI melanoma
IGROV1 ovarian = system: IGROV1 ovarian
DU-145 prostate = system: DU-145 prostate
HS 578T breast = system: HS 578T breast
OVCAR-8 ovarian = system: OVCAR-8 ovarian
RXF 393 renal = system: RXF 393 renal
OVCAR-4 ovarian = system: OVCAR-4 ovarian
HCC-2998 colon = system: HCC-2998 colon
TK-10 renal = system: TK-10 renal
COLO 205 colon = system: COLO 205 colon
SF-539 CNS = system: SF-539 CNS
ACHN renal = system: ACHN renal
MCF7 breast = system: MCF7 breast
HCT-116 colon = system: HCT-116 colon
MALME-3M melanoma = system: MALME-3M melanoma
HL-60(TB) leukemia = system: HL-60(TB) leukemia
MDA-MB-435 melanoma = system: MDA-MB-435 melanoma
MOLT-4 leukemia = system: MOLT-4 leukemia
A498 renal = system: A498 renal
MDA-MB-468 breast = system: MDA-MB-468 breast
SK-MEL-5 melanoma = system: SK-MEL-5 melanoma
UACC-62 melanoma = system: UACC-62 melanoma
U251 glioblastoma = system: U251 glioblastoma
SN12C renal = system: SN12C renal
HT29 colon = system: HT29 colon
UO-31 renal = system: UO-31 renal
CAKI-1 renal = system: CAKI-1 renal
SNB-19 CNS = system: SNB-19 CNS
UACC-257 melanoma = system: UACC-257 melanoma
SK-OV-3 ovarian = system: SK-OV-3 ovarian
NCI-H23 lung = system: NCI-H23 lung
NCI/ADR-RES ovarian = system: NCI/ADR-RES ovarian
M14 melanoma = system: M14 melanoma
K-562 leukemia = system: K-562 leukemia
EKVX NSCLC = system: EKVX NSCLC
NCI-H522 lung = system: NCI-H522 lung
SF-268 CNS = system: SF-268 CNS
MDA-MB-231 breast = system: MDA-MB-231 breast
SK-MEL-28 melanoma = system: SK-MEL-28 melanoma
CCRF-CEM leukemia = system: CCRF-CEM leukemia
NCI-H226 lung = system: NCI-H226 lung
SW-620 colon = system: SW-620 colon
PC-3 prostate = system: PC-3 prostate
HOP-62 NSCLC = system: HOP-62 NSCLC
OVCAR-3 ovarian = system: OVCAR-3 ovarian
BT-549 breast = system: BT-549 breast

SMILES: NC(=O)/C(=C/n1cnc(-c2cc(C(F)(F)F)cc(C(F)(F)F)c2)n1)c1cncnc1
- GI50 (SNB-75 CNS): 15.4 nM
- TGI (SNB-75 CNS): 41.9 nM
- GI50 (SF-295 CNS): 327 nM
- TGI (SF-295 CNS): 2690 nM
- GI50 ([…]-0 renal): 50.4 nM
- TGI (786-0 renal): 1220 nM
- TGI (RPMI-8226 leukemia): 24.1 nM
- GI50 (NCI-H460 NSCLC): 29.6 nM
- TGI (NCI-H460 NSCLC): 131 nM
- GI50 (HOP-92 NSCLC): 438 nM
- TGI (HOP-92 NSCLC): 2060 nM
- GI50 (T-47D breast): 192 nM
- TGI (T-47D breast): 1580 nM
- GI50 (KM12 colon): 191 nM
- TGI (KM12 colon): 1930 nM
- GI50 (A549 NSCLC): 196 nM
- TGI (A549 NSCLC): 1640 nM
- GI50 (HCT-15 colon): 92.7 nM
- TGI (HCT-15 colon): 1180 nM
- GI50 (NCI-H322M lung): 297 nM
- TGI (NCI-H322M lung): 2900 nM
- GI50 (LOX IMVI melanoma): 144 nM
- TGI (LOX IMVI melanoma): 687 nM
- GI50 (IGROV1 ovarian): 296 nM
- TGI (IGROV1 ovarian): 2130 nM
- GI50 (DU-145 prostate): 235 nM
- TGI (DU-145 prostate): 3.94 µM
- GI50 (HS 578T breast): 33 nM
- TGI (HS 578T breast): 244 nM
- GI50 (OVCAR-8 ovarian): 37.8 nM
- TGI (OVCAR-8 ovarian): 1050 nM
- GI50 (RXF 393 renal): 24.4 nM
- TGI (RXF 393 renal): 116 nM
- GI50 (OVCAR-4 ovarian): 249 nM
- TGI (OVCAR-4 ovarian): 780 nM
- GI50 (HCC-2998 colon): 60.5 nM
- TGI (HCC-2998 colon): 287 nM
- GI50 (TK-10 renal): 47.5 nM
- TGI (TK-10 renal): 1350 nM
- GI50 (COLO 205 colon): 44.1 nM
- TGI (COLO 205 colon): 1740 nM
- GI50 (SF-539 CNS): 27.5 nM
- TGI (SF-539 CNS): 84 nM
- GI50 (ACHN renal): 329 nM
- TGI (ACHN renal): 2670 nM
- GI50 (MCF7 breast): 47.8 nM
- TGI (MCF7 breast): 10.9 µM
- GI50 (HCT-116 colon): 40.1 nM
- TGI (HCT-116 colon): 232 nM
- GI50 (MALME-3M melanoma): 32.2 nM
- TGI (MALME-3M melanoma): 483 nM
- GI50 (HL-60(TB) leukemia): 15.3 nM
- TGI (HL-60(TB) leukemia): 131 nM
- GI50 (MDA-MB-435 melanoma): 40.9 nM
- TGI (MDA-MB-435 melanoma): 170 nM
- GI50 (MOLT-4 leukemia): 14.5 nM
- TGI (MOLT-4 leukemia): 28.2 nM
- GI50 (A498 renal): 42 nM
- TGI (A498 renal): 232 nM
- GI50 (MDA-MB-468 breast): 73 nM
- TGI (MDA-MB-468 breast): 247 nM
- GI50 (SK-MEL-5 melanoma): 192 nM
- TGI (SK-MEL-5 melanoma): 1190 nM
- GI50 (UACC-62 melanoma): 57.2 nM
- TGI (UACC-62 melanoma): 241 nM
- GI50 (U251 glioblastoma): 120 nM
- TGI (U251 glioblastoma): 785 nM
- GI50 (SN12C renal): 598 nM
- TGI (SN12C renal): 2260 nM
- GI50 (HT29 colon): 65.6 nM
- TGI (HT29 colon): 943 nM
- GI50 (UO-31 renal): 269 nM
- TGI (UO-31 renal): 1570 nM
- GI50 (CAKI-1 renal): 22 nM
- TGI (CAKI-1 renal): 1340 nM
- GI50 (SNB-19 CNS): 188 nM
- TGI (SNB-19 CNS): 1880 nM
- GI50 (UACC-257 melanoma): 591 nM
- TGI (UACC-257 melanoma): 2120 nM
- GI50 (SK-OV-3 ovarian): 92.2 nM
- TGI (SK-OV-3 ovarian): 8.97 µM
- GI50 (NCI-H23 lung): 71.3 nM
- TGI (NCI-H23 lung): 1120 nM
- GI50 (NCI/ADR-RES ovarian): 222 nM
- TGI (NCI/ADR-RES ovarian): 1680 nM
- GI50 (M14 melanoma): 146 nM
- TGI (M14 melanoma): 485 nM
- GI50 (K-562 leukemia): 37.2 nM
- TGI (K-562 leukemia): 1030 nM
- GI50 (EKVX NSCLC): 591 nM
- TGI (EKVX NSCLC): 4.14 µM
- GI50 (NCI-H522 lung): 24.9 nM
- TGI (NCI-H522 lung): 184 nM
- GI50 (SF-268 CNS): 26.7 nM
- TGI (SF-268 CNS): 95.3 nM
- GI50 (MDA-MB-231 breast): 29.5 nM
- TGI (MDA-MB-231 breast): 253 nM
- GI50 (SK-MEL-28 melanoma): 106 nM
- TGI (SK-MEL-28 melanoma): 372 nM
- GI50 (CCRF-CEM leukemia): 47.4 nM
- TGI (CCRF-CEM leukemia): 188 nM
- GI50 (NCI-H226 lung): 31.6 nM
- TGI (NCI-H226 lung): 400 nM
- GI50 (SW-620 colon): 41 nM
- TGI (SW-620 colon): 1410 nM
- GI50 (PC-3 prostate): 26.1 nM
- TGI (PC-3 prostate): 110 nM
- GI50 (HOP-62 NSCLC): 229 nM
- TGI (HOP-62 NSCLC): 995 nM
- GI50 (OVCAR-3 ovarian): 28 nM
- TGI (OVCAR-3 ovarian): 171 nM
- GI50 (BT-549 breast): 12.1 nM
- TGI (BT-549 breast): 45.5 nM
